We go through 1 substance from patent US20210038732A1, “ANTICANCER MICRORNA AND LIPID FORMULATIONS THEREOF” (INTERNA TECHNOLOGIES B.V., priority 2018, published 2021).

In series [1] the test system is orthotopic human Hep3b hepatocellular carcinoma tumors. Kind of series: Orthotopic Hep3b model, miRNAs in NOV340, AFP and tumor weight (Example 4.13). It is filed as in vivo, mice. The note with it: NOV340 nanoparticles, 6 mg/kg iv QODx9 for 3 weeks; day 39. As to the method:
Six to eight weeks old female SCID/Beige mice (Shanghai Lingchang Bio-Technology Co. Ltd, Shanghai, China) were orthotopically implanted with a single 2×2×2 mm piece of a subq grown Hep3b tumor into the left liver lobe. Mice were randomized based on day 21 AFP levels. At the time of randomization, the AFP levels (ng/ml plasma) ranged between 401 and 40628 ng/ml (median 2536, IQR=1037-5510). Treatments were with sorafenib, with vehicle control, or with various miRNAs (or scrambled miRNA control) encapsulated in NO340 lipid nanoparticles (Simonson and Das, Mini Rev Med Chem, 2015, 15(6): 467-474, PMID: 25807941). Treatments started on day 22 and continued for three weeks (dosing scheme in Table 21). AFP was measured once a week for 4 weeks, and BW was measured twice a week. At the end of the study tumor weights were also determined. QOD×9=one injection every other day for nine times; BID=twice daily; po=per oral.
After terminal sacrifice on day 39, AFP levels and tumor weights were determined.

Another series concerns HCT116. Kind of series: Caspase 3/7 apoptosis assay. It is filed as cell-based. The note with it: 10 nM, normalized to mock. As to the method:
(§1) Depending on cancer cell type 3000-6000 cells were seeded in a 96 well plate. After cells attached, they were transfected with different concentrations of miRNA-193a and apoptosis induction was measured at different time points. This assay was performed using Promega kit. 100 uL of caspase reagent was added to 100 uL of media in each well in 96-well plate and incubated for 2 hours in the dark at room temperature. The luminescent signal was read on a luminescent plate reader.
(§2) Different biological effects of miRNA-193a-3p have been tested in various cancer cell lines (see Table 13). For this, various cells were treated with miRNA-193a at different concentrations (1, 3, 10 nM). For all experiments controls (untreated, mock and scrambled) were measured. All assays were performed at 24h, 48h and 72h time points. Data shown in Table 13 are the results for miRNA-193a at 10 nM concentration at indicated time points. All the results have been quantified and normalized to the mock control.
(§3) miRNA-193a treatment in various cancer cell lines decreased cell viability over time as measured by either an MTS assay or by cell count. It enhanced apoptosis induction over time as measured by a caspase 3/7 apoptosis assay. […] It is of note that due to intrinsic characteristics and gene mutation status of each cell line, performing one method to detect apoptosis is not always ideal for all cell lines.

Another series deals with Panc-1. Kind of series: Caspase 3/7 apoptosis assay. The note with it: 10 nM, normalized to mock. It is filed as cell-based. As to the method:
as §1, §2, §3

A further series concerns H1975. Kind of series: Caspase 3/7 apoptosis assay. It is filed as cell-based. The note with it: 10 nM, normalized to mock. As to the method:
as §1, §2, §3

Another series concerns EMT6. Put plainly: Caspase 3/7 apoptosis assay. It is filed as cell-based. The note with it: 10 nM, normalized to mock. As to the method:
as §1, §2, §3

The test system of a further series is H1299. Kind of series: Caspase 3/7 apoptosis assay. It is filed as cell-based. The note with it: 10 nM, normalized to mock. As to the method: as §1, §2, §3
Another series deals with Huh7, H1299, and HCT116. Put plainly: Cleaved-parp protein on western blot. It is filed as cell-based. The note with it: data not shown.
Description: as §3
A general note: In western blotting, separated proteins are transferred to a membrane and probed.

For series [2], the system named is K-Ras, MCL1, ENTPD1 (CD39) and TIM-3. Kind of series: PD effect: target gene mRNA in orthotopic 4T1 tumors by qPCR (Example 4.6). It counts as in vivo, mice. The note with it: 10 mg/kg iv QDx2; various time points 2-72 h post final dose. The method, then:
To prepare cDNA, first 100 ng total RNA was mixed with Random Hexamers (Qiagen; final concentration 2 μM) in a final volume of 12.5 μl in NFW, denatured for 5 min at 70° C. and immediately cooled on ice. Next, 7.5 μl of a cDNA synthesis mix was added, consisting of 4 μl 5×RT Buffer (Promega), 0.4 μl 25 mM dNTPs (Promega), 1 μl 200 U/μL MMLV RT-enzyme (Promega), 0.5 μL 40 U/μL RNAse Inhibitor (Promega) and 1.6 μL NFW. The following cDNA synthesis protocol was used:
Six to eight weeks old female BALB/c mice (Shanghai Lingchang Bio-Technology Co. Ltd, Shanghai, China) were injected with 3×10^5 4T1 mouse tumor cells in PBS (0.1 mL/mouse) into the mammary fat pad. At the time of randomization, the tumor volumes (TVs) ranged between 252.30-370.45 mm^3. After randomization mice received similar treatments with similar dosing regimen (see Table 11). Mice were sacrificed at pre-determined time points (see Table 11). The tumors from each mouse were collected, snap frozen in liquid nitrogen and then stored at −80° C.
Assessed genes include K-Ras, MCL1, ENTPD1 (CD39) and TIM-3. The role and biological importance for these target genes is briefly discussed in Table 12.

With “miRNA-193a: duplex of the miRNA-193a-3p of SEQ ID NO: 218 (mimic, sense) with antisense strand SEQ ID NO: 219; naked in vitro, formulated in vivo (sense UGGGACUUUGUAGGCCAGUUTT; antisense AACUGGCCUACAAAGUCCCAGU; chemistry not given here; listed as Homo sapiens)”, in series [1], the “Growth of Hep3b HCC tumors measured by AFP and tumor weight” value is given as “did not inhibit growth”. Also, the “Apoptosis (48/72 h)” value in the series with HCT116 is “↑↑ (Induction > 2x)”; in the series with Panc-1, “↑↑ (Induction > 2x)”; in the series with H1975, “↑ (Induction < 2x)”; in the series on EMT6, “↑↑ (Induction > 2x)”; in the series with H1299, “↑ (Induction < 2x)”. Further, in the series with Huh7, H1299, and HCT116, the “Cleaved-parp protein on western blot” value was “enhanced cleaved-parp protein”. For the same substance, the “Target mRNAs expression in tumor” value in series [2] is reported as “significant reduction”.
